Experimental data reported in patent US6472530B1, “Benzo-fused dithiepino[6,5-b]pyridines, and related compositions and methods” (Ortho-McNeil Pharmaceutical, Inc., priority 1999, dated 2002).
pIC50: −log10 of the molar value.

target: T1, calcium channel (Oryctolagus cuniculus, UniProt P15381); assay: Assay for Inhibition of Nitrendipine Binding (3H-nitrendipine, heart membranes); design: species or system rabbit; conditions: not given
T1 construct: from tissue; host or cells: rabbit heart membrane preparation
Procedure: Assay for Inhibition of Nitrendipine Binding
Female, New Zealand white rabbits (1-2 kg) are sacrificed by cervical dislocation, and the heart is immediately removed, cleaned and chopped into small pieces. The tissue is homogenized in 5×times volume of 0.05M Hepes buffer, pH 7.4. The homogenate is centrifuged at 4000 g for 10 minutes, and the supernatant is re-centrifuged at 42,000×g for 90 minutes. The resulting membrane pellet is resuspended (0.7 ml/g weight) in 0.05M Hepes, pH 7.4 and stored at […] until used. Each tube of the binding assay contains ^3H-nitrendipine (0.05-0.50 nM), buffer, membranes (0.10 ml), and test compound in a total volume of 1.0 ml. After 90 minutes at 4° C., the bound nitrendipine is separated from the unbound by filtration on Whatman GF/C filters. After rinsing, the filters are dried and counted in a liquid scintillation counter.
Non-specific binding of ^3H-nitrendipine (that amount bound in the presence of excess unlabelled nitrendipine) is subtracted from the total bound to obtain specifically bound radiolabeled nitrendipine. The amount of specifically bound nitrendipine in the presence of a test compound is compared to that amount bound in the absence of a compound. A percent displacement (or inhibition) can then be calculated.

T1 sequence (P15381 whole entry, other chains not shown): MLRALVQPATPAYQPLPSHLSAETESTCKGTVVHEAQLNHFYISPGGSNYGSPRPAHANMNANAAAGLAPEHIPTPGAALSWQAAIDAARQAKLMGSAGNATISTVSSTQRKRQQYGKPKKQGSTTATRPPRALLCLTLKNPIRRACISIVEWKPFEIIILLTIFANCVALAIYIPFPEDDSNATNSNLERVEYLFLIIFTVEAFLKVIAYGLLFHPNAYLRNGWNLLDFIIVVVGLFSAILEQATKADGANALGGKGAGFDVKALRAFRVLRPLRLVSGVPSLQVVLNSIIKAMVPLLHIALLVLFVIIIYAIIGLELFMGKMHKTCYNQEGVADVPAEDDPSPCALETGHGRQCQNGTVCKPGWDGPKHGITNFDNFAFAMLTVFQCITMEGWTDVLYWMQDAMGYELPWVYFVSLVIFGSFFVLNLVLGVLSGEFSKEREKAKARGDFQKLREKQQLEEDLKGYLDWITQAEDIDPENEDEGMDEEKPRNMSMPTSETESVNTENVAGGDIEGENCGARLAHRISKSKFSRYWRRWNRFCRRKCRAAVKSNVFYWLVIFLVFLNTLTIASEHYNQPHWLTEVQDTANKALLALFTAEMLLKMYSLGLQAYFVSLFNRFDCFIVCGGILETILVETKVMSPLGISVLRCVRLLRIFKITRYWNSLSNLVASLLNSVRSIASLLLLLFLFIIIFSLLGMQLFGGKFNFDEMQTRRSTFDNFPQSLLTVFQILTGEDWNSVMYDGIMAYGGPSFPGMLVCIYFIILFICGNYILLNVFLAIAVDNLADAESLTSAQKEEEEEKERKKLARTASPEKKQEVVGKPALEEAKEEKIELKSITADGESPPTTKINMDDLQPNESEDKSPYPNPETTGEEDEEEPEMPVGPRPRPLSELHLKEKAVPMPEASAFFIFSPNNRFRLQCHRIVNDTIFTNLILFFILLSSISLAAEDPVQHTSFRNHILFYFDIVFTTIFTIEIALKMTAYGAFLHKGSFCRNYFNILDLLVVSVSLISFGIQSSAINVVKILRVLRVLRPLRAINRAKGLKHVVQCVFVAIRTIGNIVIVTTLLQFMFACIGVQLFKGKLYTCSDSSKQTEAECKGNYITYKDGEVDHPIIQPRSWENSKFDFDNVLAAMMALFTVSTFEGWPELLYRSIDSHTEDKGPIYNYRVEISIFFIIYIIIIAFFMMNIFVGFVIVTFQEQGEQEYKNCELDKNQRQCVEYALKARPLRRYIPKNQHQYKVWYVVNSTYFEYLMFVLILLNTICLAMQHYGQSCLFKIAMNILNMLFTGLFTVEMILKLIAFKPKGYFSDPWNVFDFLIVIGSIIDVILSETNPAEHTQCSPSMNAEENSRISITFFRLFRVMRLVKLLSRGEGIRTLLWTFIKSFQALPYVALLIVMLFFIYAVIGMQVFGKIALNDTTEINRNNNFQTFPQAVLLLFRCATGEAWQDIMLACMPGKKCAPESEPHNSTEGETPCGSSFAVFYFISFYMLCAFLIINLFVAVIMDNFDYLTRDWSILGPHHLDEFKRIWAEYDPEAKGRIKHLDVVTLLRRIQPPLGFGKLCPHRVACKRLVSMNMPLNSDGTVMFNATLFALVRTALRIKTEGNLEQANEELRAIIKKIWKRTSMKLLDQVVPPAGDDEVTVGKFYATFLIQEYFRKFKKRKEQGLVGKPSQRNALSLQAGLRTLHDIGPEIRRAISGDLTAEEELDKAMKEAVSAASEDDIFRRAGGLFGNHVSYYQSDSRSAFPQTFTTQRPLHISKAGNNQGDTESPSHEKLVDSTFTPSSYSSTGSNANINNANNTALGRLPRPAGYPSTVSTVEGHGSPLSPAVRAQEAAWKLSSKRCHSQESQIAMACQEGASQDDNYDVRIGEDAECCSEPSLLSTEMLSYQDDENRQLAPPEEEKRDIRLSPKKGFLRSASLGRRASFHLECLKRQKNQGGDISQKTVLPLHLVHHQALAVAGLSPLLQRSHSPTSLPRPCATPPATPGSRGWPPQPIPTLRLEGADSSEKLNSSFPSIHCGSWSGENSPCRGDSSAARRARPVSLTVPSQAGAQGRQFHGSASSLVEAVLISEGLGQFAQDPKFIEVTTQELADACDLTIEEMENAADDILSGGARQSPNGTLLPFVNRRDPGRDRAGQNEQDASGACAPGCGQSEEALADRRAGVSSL
T1 sequence (P13806 27-960 partner limits assumed, other chains not shown): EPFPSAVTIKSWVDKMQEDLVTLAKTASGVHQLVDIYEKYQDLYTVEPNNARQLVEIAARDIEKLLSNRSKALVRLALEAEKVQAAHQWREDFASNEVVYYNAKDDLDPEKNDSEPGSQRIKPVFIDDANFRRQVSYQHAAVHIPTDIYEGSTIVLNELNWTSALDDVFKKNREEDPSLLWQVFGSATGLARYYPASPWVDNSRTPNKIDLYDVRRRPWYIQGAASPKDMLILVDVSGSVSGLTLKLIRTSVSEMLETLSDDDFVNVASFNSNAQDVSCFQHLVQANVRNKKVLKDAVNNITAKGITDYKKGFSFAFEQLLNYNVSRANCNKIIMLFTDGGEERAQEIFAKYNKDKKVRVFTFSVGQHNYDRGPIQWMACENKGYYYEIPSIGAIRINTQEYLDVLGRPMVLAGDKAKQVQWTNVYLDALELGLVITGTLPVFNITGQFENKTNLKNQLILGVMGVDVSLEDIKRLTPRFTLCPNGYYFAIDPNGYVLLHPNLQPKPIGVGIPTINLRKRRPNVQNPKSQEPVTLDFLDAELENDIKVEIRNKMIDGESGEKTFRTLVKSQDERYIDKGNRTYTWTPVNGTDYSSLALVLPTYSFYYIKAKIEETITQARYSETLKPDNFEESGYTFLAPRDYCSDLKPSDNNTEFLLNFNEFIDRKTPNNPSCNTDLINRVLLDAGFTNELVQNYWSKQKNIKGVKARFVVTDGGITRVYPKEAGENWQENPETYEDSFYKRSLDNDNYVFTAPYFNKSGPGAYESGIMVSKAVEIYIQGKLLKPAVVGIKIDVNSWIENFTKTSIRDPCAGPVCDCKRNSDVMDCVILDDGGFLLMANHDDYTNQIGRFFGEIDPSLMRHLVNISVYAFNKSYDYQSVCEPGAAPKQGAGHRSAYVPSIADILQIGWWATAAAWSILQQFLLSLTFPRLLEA
T1 sequence (P13806 961-1106 partner limits assumed, other chains not shown): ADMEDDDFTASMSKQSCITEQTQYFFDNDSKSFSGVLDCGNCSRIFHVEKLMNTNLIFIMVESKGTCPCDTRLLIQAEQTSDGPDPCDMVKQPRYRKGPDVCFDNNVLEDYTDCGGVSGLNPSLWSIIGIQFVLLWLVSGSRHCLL

| Compound | pIC50 |
| --- | --- |
| CC1=C(C(=O)OCCOC(=O)Cc2ccccc2)C(c2c(F)cccc2Cl)C2=C(CS(=O)(=O)c3ccccc3S2(=O)=O)N1 (centres unmarked) [Compound 30] | 6.96 |

same assay, conditions: Table 1, compounds of Formula I; 3H-nitrendipine displacement, rabbit heart membranes; read-out: Nitrendipine Binding Assay IC50

| Compound | pIC50 |
| --- | --- |
| CC1=C(C(=O)OCCN(C)Cc2ccccc2)C(c2c(F)cccc2Cl)C2=C(CS(=O)(=O)c3ccccc3S2(=O)=O)N1 (centres unmarked) [Compound 17, 1H-[1,5]Benzodithiepino[3,2-b]pyridine-3-carboxylic acid, 4-(2-chloro-6-fluorophenyl)-4,11-dihydro-2-methyl, 2-[methyl(phenylmethyl)amino]ethyl ester, 5,5,10,10-tetraoxide] | 7.21 |
| CC1=C(C(=O)OCCN(C)Cc2ccccc2)C(c2cccc([N+](=O)[O-])c2)C2=C(CS(=O)(=O)c3ccccc3S2(=O)=O)N1 (centres unmarked) [Compound 16, 1H-[1,5]Benzodithiepino[3,2-b]pyridine-3-carboxylic acid, 4,11-dihydro-2-methyl-4-(3-nitrophenyl), 2-[methyl(phenylmethyl)amino]ethyl ester, 5,5,10,10-tetraoxide] | 7.62 |
| CC1=C(C(=O)OCCN(C)Cc2ccccc2)C(c2ccccc2Cl)C2=C(CS(=O)(=O)c3ccccc3S2(=O)=O)N1 (centres unmarked) [Compound 19, 1H-[1,5]Benzodithiepino[3,2-b]pyridine-3-carboxylic acid, 4-(2-chlorophenyl)-4,11-dihydro-2-methyl, 2-[methyl(phenylmethyl)amino]ethyl ester, 5,5,10,10-tetraoxide] | 7.74 |
| COC(=O)C1=C(C)NC2=C(C1c1cccc([N+](=O)[O-])c1)S(=O)(=O)c1ccccc1S(=O)(=O)C2 (centres unmarked) [Compound 15, 1H-[1,5]Benzodithiepino[3,2-b]pyridine-3-carboxylic acid, 4,11-dihydro-2-methyl-4-(3-nitrophenyl), methyl ester, 5,5,10,10-tetraoxide] | 7.70 |
| CC1=C(C(=O)OCCN(C)Cc2ccccc2)C(c2cccc(C(F)(F)F)c2F)C2=C(CS(=O)(=O)c3ccccc3S2(=O)=O)N1 (centres unmarked) [Compound 14, 1H-[1,5]Benzodithiepino[3,2-b]pyridine-3-carboxylic acid, 4-[2-fluoro-3-(trifluoromethyl)phenyl]-4,11-dihydro-2-methyl, 2-[methyl(phenylmethyl)-amino]ethyl ester, 5,5,10,10-tetraoxide] | 7.24 |
| COC(=O)C1=C(C)NC2=C(C1c1c(F)c(F)c(F)c(F)c1F)S(=O)(=O)c1ccccc1S(=O)(=O)C2 (centres unmarked) [Compound 11, 1H-[1,5]Benzodithiepino[3,2-b]pyridine-3-carboxylic acid, 4,11-dihydro-2-methyl-4-(pentafluorophenyl), methyl ester, 5,5,10,10-tetraoxide] | 7.92 |
| COC(=O)C1=C(C)NC2=C(C1c1ccccc1Cl)S(=O)(=O)c1ccccc1[S+]([O-])C2 (centres unmarked) [Compound 1, 1H-[1,5]Benzodithiepino[3,2-b]pyridine-3-carboxylic acid, 4-(2-chlorophenyl)-4,11-dihydro-2-methyl, methyl ester, 5,5,10-trioxide] | 7.85 |
| COC(=O)C1=C(C)NC2=C(C1c1ccccc1Cl)S(=O)(=O)c1ccccc1S(=O)(=O)C2 (centres unmarked) [Compound 5, 1H-[1,5]Benzodithiepino[3,2-b]pyridine-3-carboxylic acid, 4-(2-chlorophenyl)-4,11-dihydro-2-methyl, methyl ester, 5,5,10,10-tetraoxide] | 8.05 |
| CC1=C(C(=O)OCCN(C)Cc2ccccc2)C(c2cccc(Cl)c2Cl)C2=C(CS(=O)(=O)c3ccccc3S2(=O)=O)N1 (centres unmarked) [Compound 2, 1H-[1,5]Benzodithiepino[3,2-b]pyridine-3-carboxylic acid, 4-(2,3-dichlorophenyl)-4,11-dihydro-2-methyl, 2-[methyl(phenylmethyl)amino]ethyl ester, 5,5,10,10-tetraoxide] | 7.70 |
| CC1=C(C(=O)OCCN(C)Cc2ccccc2)C(c2ccccc2Cl)C2=C(C[S+]([O-])c3ccccc3S2(=O)=O)N1 (centres unmarked) [Compound 18, 1H-[1,5]Benzodithiepino[3,2-b]pyridine-3-carboxylic acid, 4-(2-chlorophenyl)-4,11-dihydro-2-methyl, 2-[methyl(phenylmethyl)amino]ethyl ester, 5,5,10-trioxide] | 7.64 |
| CC1=C(C(=O)OCCN(C)Cc2ccccc2)C(c2cccc(Cl)c2)C2=C(CS(=O)(=O)c3ccccc3S2(=O)=O)N1 (centres unmarked) [Compound 4, 1H-[1,5]Benzodithiepino[3,2-b]pyridine-3-carboxylic acid, 4-(3-chlorophenyl)-4,11-dihydro-2-methyl, 2-[methyl(phenylmethyl)amino]ethyl ester, 5,5,10,10-tetraoxide] | 7.66 |
| COC(=O)C1=C(C)NC2=C(C1c1ccccc1[N+](=O)[O-])S(=O)(=O)c1ccccc1S(=O)(=O)C2 (centres unmarked) [Compound 10] | 7.44 |
| COC(=O)C1=C(C)NC2=C(C1c1cccc(Cl)c1)S(=O)(=O)c1ccccc1[S+]([O-])C2 (centres unmarked) [Compound 6, 1H-[1,5]Benzodithiepino[3,2-b]pyridine-3-carboxylic acid, 4-(3-chlorophenyl)-4,11-dihydro-2-methyl, methyl ester, 5,5,10-trioxide] | 7.70 |

same assay, conditions: Table 2, compounds of Formula II; 3H-nitrendipine displacement, rabbit heart membranes; read-out: Nitrendipine Binding IC50

| Compound | pIC50 |
| --- | --- |
| CC1=C(C(=O)OCCN)C(c2c(F)cccc2Cl)C2=C(CS(=O)(=O)c3ccccc3S2(=O)=O)N1 (centres unmarked) [Compound 26, 1H-[1,5]benzodithiepino[3,2-b]pyridine-3-carboxylic acid, 4-(2-chloro-6-fluorophenyl)-4,11-dihydro-2-methyl-, 2-aminoethyl ester, 5,5,10,10-tetraoxide] | 5.70 |
| CC1=C(C(=O)OCCOC(=O)/C=C/c2ccccc2)C(c2c(F)cccc2Cl)C2=C(CS(=O)(=O)c3ccccc3S2(=O)=O)N1 (centres unmarked) [Compound 37, 1H-[1,5]benzodithiepino[3,2-b]pyridine-3-carboxylic acid, 4-(2-chloro-6-fluorophenyl)-4,11-dihydro-2-methyl-, 2-[[(2E)-1-oxo-3-phenyl-2-propenyl]oxy]ethyl ester, 5,5,10,10-tetraoxide] | 7.00 |
| CC1=C(C(=O)OCCNC(=O)c2ccccc2)C(c2c(F)cccc2Cl)C2=C(CS(=O)(=O)c3ccccc3S2(=O)=O)N1 (centres unmarked) [Compound 29, 1H-[1,5]benzodithiepino[3,2-b]pyridine-3-carboxylic acid, 4-(2-chloro-6-fluorophenyl)-4,11-dihydro-2-methyl-, 2-(benzoylamino)ethyl ester, 5,5,10,10-tetraoxide] | 6.07 |
| CC1=C(C(=O)OCCOC(=O)CCCCCCCCCc2ccccc2)C(c2c(F)cccc2Cl)C2=C(CS(=O)(=O)c3ccccc3S2(=O)=O)N1 (centres unmarked) [Compound 36] | 3.93 |
| CC1=C(C(=O)OCCOC(=O)C(C)c2ccc(CC(C)C)cc2)C(c2c(F)cccc2Cl)C2=C(CS(=O)(=O)c3ccccc3S2(=O)=O)N1 (centres unmarked) [Compound 32] | 6.21 |
| CC1=C(C(=O)OCCOC(=O)CCCCCCc2ccccc2)C(c2c(F)cccc2Cl)C2=C(CS(=O)(=O)c3ccccc3S2(=O)=O)N1 (centres unmarked) [Compound 35] | 7.22 |
| CC1=C(C(=O)OCCOC(=O)c2ccccc2)C(c2c(F)cccc2Cl)C2=C(CS(=O)(=O)c3ccccc3S2(=O)=O)N1 (centres unmarked) [Compound 23, 1H-[1,5]benzodithiepino[3,2-b]pyridine-3-carboxylic acid, 4-(2-chloro-6-fluorophenyl)-4,11-dihydro-2-methyl-, 2-(benzoyloxy)ethyl ester, 5,5,10,10-tetraoxide] | 7.52 |
| CC1=C(C(=O)OCCOC(=O)C(C)C)C(c2c(F)cccc2Cl)C2=C(CS(=O)(=O)c3ccccc3S2(=O)=O)N1 (centres unmarked) [Compound 27] | 7.59 |
| CC1=C(C(=O)OCCCO)C(c2c(F)cccc2Cl)C2=C(CS(=O)(=O)c3ccccc3S2(=O)=O)N1 (centres unmarked) [Compound 33] | 5.84 |
| CC1=C(C(=O)OCCO)C(c2c(F)cccc2Cl)C2=C(CS(=O)(=O)c3ccccc3S2(=O)=O)N1 (centres unmarked) [Compound 21] | 5.22 |
| CC1=C(C(=O)OCCOC(=O)C2CCCCC2)C(c2c(F)cccc2Cl)C2=C(CS(=O)(=O)c3ccccc3S2(=O)=O)N1 (centres unmarked) [Compound 24, 1H-[1,5]benzodithiepino[3,2-b]pyridine-3-carboxylic acid, 4-(2-chloro-6-fluorophenyl)-4,11-dihydro-2-methyl-, 2-[(cyclohexylcarbonyl)oxy]ethyl ester, 5,5,10,10-tetraoxide] | 7.37 |
| CC1=C(C(=O)OCCNC(=O)OC(C)(C)C)C(c2c(F)cccc2Cl)C2=C(CS(=O)(=O)c3ccccc3S2(=O)=O)N1 (centres unmarked) [Compound 25, 1H-[1,5]benzodithiepino[3,2-b]pyridine-3-carboxylic acid, 4-(2-chloro-6-fluorophenyl)-4,11-dihydro-2-methyl-, 2-[[(1,1-dimethylethoxy)carbonyl]amino]ethyl ester, 5,5,10,10-tetraoxide] | 6.38 |
| COc1ccc2cc([C@H](C)C(=O)OCCOC(=O)C3=C(C)NC4=C(C3c3c(F)cccc3Cl)S(=O)(=O)c3ccccc3S(=O)(=O)C4)ccc2c1 (stereo partly drawn) [Compound 31, 1H-[1,5]benzodithiepino[3,2-b]pyridine-3-carboxylic acid, 4-(2-chloro-6-fluorophenyl)-4,11-dihydro-2-methyl-, 2-[[(2S)-2-(6-methoxy-2-naphthalenyl)-1-oxopropyl]oxy]ethyl ester, 5,5,10,10-tetraoxide] | 6.68 |
| CC1=C(C(=O)OCc2oc(=O)oc2-c2ccccc2)C(c2c(F)cccc2Cl)C2=C(CS(=O)(=O)c3ccccc3S2(=O)=O)N1 (centres unmarked) [Compound 40] | 7.96 |
| CC1=C(C(=O)OCCO)C(c2c(F)cccc2Cl)C2=C(C[S+]([O-])c3ccccc3S2(=O)=O)N1 (centres unmarked) [Compound 20] | 6.51 |
